These results are taken from ChEMBL document CHEMBL1201862, “PubChem BioAssay data set” (2004).

Test systems include DU-145; MDA-MB-435; HL-60; UACC-257; SR; SNB-19; RPMI-8226; HOP-92; RXF 393; MDA-MB-231; T47D; SK-MEL-2; SW-620; CCRF-CEM; NCI/ADR-RES; OVCAR-3; UACC-62; A498; TK-10; A549.
Experiment in all cases: growth of human tumour cells (NCI), 48 h

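Five concentrations, 48 hours, 96-well plates. Here, GI50 denotes the concentration required for 50% inhibition of growth.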 Active and inactive are the calls of the source. Cut-off read from the data, not from the text of the source: active = GI50 up to about 1.1 µM and inactive = higher.

`COc1cc(C2c3cc4c(cc3OC(N3CCOCC3)C2C)OCO4)cc(OC)c1OC(C)=O` (stereo not drawn): the GI50 is 26.5 µM (inactive) with DU-145; 2.46 µM (inactive) with MDA-MB-435; 4.65 µM (inactive) in the experiment with HL-60; 53.8 µM (inactive) with UACC-257; 6.25 µM (inactive) in the experiment on SR; 15.5 µM (inactive) with SNB-19. In addition, the GI50 in the experiment with RPMI-8226 was 26.3 µM (inactive); in the experiment with HOP-92, 23.9 µM (inactive); with RXF 393 it was 11.6 µM (inactive); in the experiment on MDA-MB-231, 18 µM (inactive); with T47D, 17.4 µM (inactive); with SK-MEL-2, 12.9 µM (inactive). For the same compound, the GI50 in the experiment with SW-620 is 6.12 µM (inactive); with CCRF-CEM it was 11.7 µM (inactive); in the experiment on NCI/ADR-RES, 4.69 µM (inactive); in the experiment on OVCAR-3 it was 8.07 µM (inactive); in the experiment with UACC-62, 5.53 µM (inactive); with A498, 27.8 µM (inactive). Besides, the GI50 is 30.7 µM (inactive) in the experiment with TK-10 and 15 µM (inactive) in the experiment with A549.

For the compound `CCOC(=O)c1cc(C2(O)CCN(CC(C)CC)C2=O)c(-c2cc(C)no2)[nH]1` (stereo not drawn), the GI50 in the experiment on DU-145, with MDA-MB-435, with HL-60, with UACC-257, in the experiment with SR and with SNB-19 was > 100 µM (inactive) each time. The GI50 with RPMI-8226, with HOP-92, in the experiment with RXF 393, in the experiment with MDA-MB-231, in the experiment on T47D and with SK-MEL-2 was > 100 µM (inactive) each time. Moreover, the GI50 in the experiment on SW-620, in the experiment on CCRF-CEM, in the experiment on NCI/ADR-RES, with OVCAR-3, in the experiment with UACC-62 and in the experiment with A498 was > 100 µM (inactive) each time. In the experiment on A549, the GI50 is > 100 µM (inactive).

As to `COc1cc(CN(C)N2C(=O)c3cccc4cc([N+](=O)[O-])cc(c34)C2=O)cc(OC)c1OC`, the GI50 with DU-145, in the experiment with MDA-MB-435, in the experiment on HL-60, with SR, with SNB-19 and with RPMI-8226 was > 100 µM (inactive) throughout. In addition, the GI50 is > 100 µM (inactive) with HOP-92; 14.1 µM (inactive) in the experiment with RXF 393; 81.3 µM (inactive) with MDA-MB-231; > 100 µM (inactive) in the experiment on T47D; > 100 µM (inactive) with SK-MEL-2; > 100 µM (inactive) in the experiment with CCRF-CEM. Besides, the GI50 in the experiment on NCI/ADR-RES, in the experiment on OVCAR-3, in the experiment on UACC-62 and with A498 was > 100 µM (inactive) each time.

Regarding `COc1cc(O)c2c(O)c3c(c4c2c1[C@]1(C4)C(C)=CCCC1(C)C)[C@H](O)[C@@]1(O)CC(O)=C(C(N)=O)C(=O)[C@@]1(O)C3=O`, the GI50 in the experiment with DU-145 is 0.359 µM (active); with MDA-MB-435, 0.0667 µM (active); in the experiment with HL-60 it was 0.164 µM (active); in the experiment on UACC-257, 0.231 µM (active); with SR, 0.269 µM (active); in the experiment with SNB-19 it was 0.42 µM (active). Further, the GI50 with RPMI-8226 was 0.0612 µM (active); with HOP-92, 0.362 µM (active); in the experiment with RXF 393, 0.459 µM (active); in the experiment on MDA-MB-231, 0.259 µM (active); with T47D it was 0.365 µM (active); in the experiment on SK-MEL-2, 0.236 µM (active). Besides, the GI50 was 0.0619 µM (active) in the experiment with SW-620; 0.0326 µM (active) with CCRF-CEM; 0.345 µM (active) in the experiment with NCI/ADR-RES; 0.228 µM (active) in the experiment on OVCAR-3; 0.573 µM (active) with UACC-62; 0.163 µM (active) in the experiment on A498. Also, the GI50 in the experiment with TK-10 is 0.189 µM (active); in the experiment on A549, 0.0499 µM (active).

As to `COC(=O)[C@@H]1CO[C@H](C(C)(C)C)N1C(=O)N1C=CC(=O)C[C@H]1C`, the GI50 in the experiment with DU-145, with MDA-MB-435, in the experiment with HL-60, with UACC-257, in the experiment with SR and in the experiment on RPMI-8226 was > 100 µM (inactive) each time. Further, the GI50 in the experiment on HOP-92, in the experiment on RXF 393, with MDA-MB-231, with T47D, in the experiment on SK-MEL-2 and with SW-620 was > 100 µM (inactive) each time. Further, the GI50 in the experiment with CCRF-CEM, in the experiment with NCI/ADR-RES, in the experiment on OVCAR-3, in the experiment on UACC-62, with A498 and in the experiment on TK-10 was > 100 µM (inactive) each time. In addition, the GI50 in the experiment with A549 was > 100 µM (inactive).

Turning to `CC[C@]1(Cc2ccc(OC)c(OC)c2)C2CC(C(=O)OC)ON2O[C@H](OCc2ccccc2)[C@@H]1OC(C)=O` (stereo partly drawn), the GI50 in the experiment with DU-145 is > 100 µM (inactive); with MDA-MB-435 it was > 100 µM (inactive); with HL-60, 26.1 µM (inactive); with UACC-257, > 100 µM (inactive); with SR, > 100 µM (inactive); in the experiment with SNB-19 it was > 100 µM (inactive). In addition, the GI50 in the experiment on RPMI-8226 was 98.6 µM (inactive); in the experiment with HOP-92 it was 99.3 µM (inactive); in the experiment with RXF 393 it was > 100 µM (inactive); in the experiment with MDA-MB-231 it was > 100 µM (inactive); in the experiment with T47D, 47 µM (inactive); in the experiment on SK-MEL-2 it was > 100 µM (inactive). Also, the GI50 in the experiment with SW-620, with CCRF-CEM, with NCI/ADR-RES, in the experiment on OVCAR-3, in the experiment on UACC-62 and in the experiment on A498 was > 100 µM (inactive) throughout. In addition, the GI50 in the experiment with TK-10 and in the experiment with A549 was > 100 µM (inactive) throughout.

`CCCCCCCCCCc1c2nc(c(CCCCCCCCCC)c3ccc([nH]3)c(CCCCCCCCCC)c3nc(c(CCCCCCCCCC)c4ccc1[nH]4)C=C3)C=C2`: the GI50 in the experiment with DU-145, with MDA-MB-435, in the experiment on HL-60, with UACC-257, in the experiment on SR and in the experiment on SNB-19 was > 100 µM (inactive) throughout. The GI50 with RPMI-8226, in the experiment with HOP-92, in the experiment with RXF 393, in the experiment with MDA-MB-231, with T47D and with SK-MEL-2 was > 100 µM (inactive) in each case. The GI50 with SW-620, in the experiment with CCRF-CEM, in the experiment on NCI/ADR-RES, with OVCAR-3, in the experiment on UACC-62 and in the experiment with A498 was > 100 µM (inactive) in each case. Besides, the GI50 in the experiment on TK-10 and in the experiment on A549 was > 100 µM (inactive) throughout.

On to `O=c1oc2cc(/N=C/c3ccccc3Cl)ccc2c2ccccc12`, for which the GI50 with DU-145 is > 100 µM (inactive); in the experiment with MDA-MB-435, > 100 µM (inactive); with HL-60, 57.1 µM (inactive); with UACC-257, > 100 µM (inactive); with SR, > 100 µM (inactive); in the experiment on SNB-19, 97.5 µM (inactive). Also, the GI50 in the experiment with RPMI-8226, with HOP-92, in the experiment on RXF 393, in the experiment with MDA-MB-231, in the experiment with T47D and with SK-MEL-2 was > 100 µM (inactive) throughout. The GI50 in the experiment with SW-620 was > 100 µM (inactive); with CCRF-CEM, > 100 µM (inactive); with NCI/ADR-RES, > 100 µM (inactive); in the experiment with OVCAR-3, > 100 µM (inactive); in the experiment with UACC-62 it was 40.7 µM (inactive); in the experiment on A498, > 100 µM (inactive). Besides, the GI50 with A549 was > 100 µM (inactive).

As to `O=c1[nH]nc(Cc2ccccc2)n1/N=C\CC/C=N\n1c(Cc2ccccc2)n[nH]c1=O`, the GI50 with DU-145 is 43.5 µM (inactive); in the experiment on MDA-MB-435 it was 34.6 µM (inactive); in the experiment with HL-60 it was 21.9 µM (inactive); in the experiment with UACC-257 it was > 100 µM (inactive); in the experiment on SR it was 9.77 µM (inactive); in the experiment on SNB-19, 42.9 µM (inactive). Further, the GI50 with RPMI-8226 was 21.5 µM (inactive); in the experiment on HOP-92, 41.8 µM (inactive); in the experiment with RXF 393 it was 24.3 µM (inactive); in the experiment with MDA-MB-231, 61.9 µM (inactive); in the experiment with T47D, 30.9 µM (inactive); in the experiment with SK-MEL-2, 31.3 µM (inactive). Further, the GI50 in the experiment with SW-620 was 36.3 µM (inactive); in the experiment with CCRF-CEM, 12.5 µM (inactive); in the experiment with NCI/ADR-RES, 19.4 µM (inactive); with OVCAR-3, 61.7 µM (inactive); in the experiment on UACC-62, 16.8 µM (inactive); with A498 it was > 100 µM (inactive). Also, the GI50 with TK-10 and in the experiment on A549 was > 100 µM (inactive) throughout.

For the compound `Cc1cc(-c2nc3cc(F)ccc3s2)ccc1N`, the GI50 is 56 µM (inactive) in the experiment on DU-145; > 55.6 µM (inactive) with MDA-MB-435; > 28.1 µM (inactive) in the experiment on HL-60; 29.9 µM (inactive) in the experiment with UACC-257; < 0.0106 µM (active) in the experiment with SR; 35.8 µM (inactive) in the experiment on SNB-19. Further, the GI50 was > 31.3 µM (inactive) with RPMI-8226; 18.7 µM (inactive) in the experiment on HOP-92; 17.2 µM (inactive) with RXF 393; 8.11 µM (inactive) in the experiment with MDA-MB-231; < 0.01 µM (active) in the experiment with T47D; 34.6 µM (inactive) in the experiment on SK-MEL-2. The GI50 in the experiment on SW-620 was > 100 µM (inactive); with CCRF-CEM it was 1.95 µM (inactive); with NCI/ADR-RES, 75.9 µM (inactive); in the experiment with OVCAR-3, 28.7 µM (inactive); with UACC-62, 39.7 µM (inactive); in the experiment on A498, 2 µM (inactive). For the same compound, the GI50 is < 0.01 µM (active) in the experiment with TK-10 and 6.17 µM (inactive) in the experiment with A549.
